Measured values published in publication PMC2365111, “Cytotoxicity of Poly(Phenolic)Sulfonates and Their Sodium Salts in L1210 Lymphoid Leukemia Cells” (Metal-Based Drugs, 1998).
pIC50: −log10 of the molar value.

Tests used:
[1] = system: colorectal adenocarcinoma SW480; test: Cytotoxicity, SW480 growth; type: cell-based, human
From the text: CYTOTOXlCITY OF POLY(PHENOLIC)SULFONATES AND THEIR SODIUM SALTS IN L1210 LYMPHOID LEUKEMIA CELLS Fei Wang, Amy E. Warren, Cheryl R. Barnes and Iris H. Hall* Division of Medicinal Chemistry and Natural Products University of North Carolina Chapel Hill, N.C. […] Because ofthese properties it was surmised that these poly(phenolic)sulfonated compounds may have antineoplastic activity. METHODS Source of Compounds Test compounds were supplied by GeneLabs, Inc. [Redwood City, CA [Table 1]. Radioisotopes were obtained from New England Nuclear [Dupont, Boston, MA]. Substrates and co-factors were purchased om Sigma Chemical Co., [St Louis, MO]. Pentosan sulfate and other antineoplastic standards were obtained from Sigma Chemical Co. Tumor lines were obtained from American Type Culture Collection [Rockville, MD]. 147 Vol. 5, No. 3, 1998 Cytotoxicity ofSodium Poly(Phenolic)Sulfonates in L1210 Lymphoid Leukemia Cells Table 1 Structures of Poly(phenolic)sulfonate Compounds O2R" n Compound R' R" n MW # G1-2041 H OH 8 1489.46 G1-2029 H OH 6 1117.09 G1-2030 H OH 4 744.73 GI-2021 CH3 ONa 8 1777.5 G1-2057 CH3 ONa 4 888.75 GI-2158 CH3 ONa 6 1333.13 GI-2063 OCH3 ONa 8 2001.65 G1-2042 OAc ONa 8 2017.73 Cytotoxicity Poly(phenolic)sulfonates were tested for cytotoxic activity by homogenizing drug in 0.05% Tween 80/H20 to give a mg/ml stock concentration. These solutions were sterilized by passing them through an acrodisc ([…]). The following cell lines were maintained by literature techniques: murine L1210 lymphoid leukemia, P-388 lymphocytic leukemia, rat UMR 106 osteosarcoma, human Tmolt3 acute lymphoblastic T cell leukemia, HUT-8 lymphoma, HeLa-S suspended cervical carcinoma, HeLa solid cervical carcinoma, KB epidermoid nasopharynx, A431 epidermoid carcinoma, colorectal adenocarcinoma SW480, HCT-8 ileocecal adenocarcinoma, lung bronchogenic MB-9812, A549 lung carcinoma, and glioma HS683. […] Cell numbers were determined by the trypan blue exclusion technique. Solid tumor cytotoxicity was determined by Leibovitz et al. 's method utilizing crystal violeeOH and read at 562 nm (Molecular Devices). Values for cytotoxicity were expressed as EDs0 g/ml, i.e. the concentration ofthe compound inhibiting 50% ofcell growth. […] Incorporation of 4C- formate (53.0 mCi/mmol) into pyrimidines was determined by the method of Christopherson et al.[13]. […] DNA polymerase Ot activity was determined in cytoplasmic extracts isolated by Eichler et aL's method. […] Messenger-, ribosomal- and transfer-RNA polymerase enzymes were isolated with different concentrations of ammonium sulfate; individual RNA polymerase activities were determined using 3H -UTP 16,17]. Ribonucleoside reductase activity was measured using 4C -CDP with dithioerythritol. […]

[2] = system: KB epidermoid nasopharynx; test: Cytotoxicity, KB growth; type: cell-based, human; details: concentration inhibiting 50% of cell growth
From the text: (§1) CYTOTOXlCITY OF POLY(PHENOLIC)SULFONATES AND THEIR SODIUM SALTS IN L1210 LYMPHOID LEUKEMIA CELLS Fei Wang, Amy E. Warren, Cheryl R. Barnes and Iris H. Hall* Division of Medicinal Chemistry and Natural Products University of North Carolina Chapel Hill, N.C. […] Because ofthese properties it was surmised that these poly(phenolic)sulfonated compounds may have antineoplastic activity. METHODS Source of Compounds Test compounds were supplied by GeneLabs, Inc. [Redwood City, CA [Table 1]. Radioisotopes were obtained from New England Nuclear [Dupont, Boston, MA]. Substrates and co-factors were purchased om Sigma Chemical Co., [St Louis, MO]. Pentosan sulfate and other antineoplastic standards were obtained from Sigma Chemical Co. Tumor lines were obtained from American Type Culture Collection [Rockville, MD]. […] Cell numbers were determined by the trypan blue exclusion technique. Solid tumor cytotoxicity was determined by Leibovitz et al. 's method utilizing crystal violeeOH and read at 562 nm (Molecular Devices). Values for cytotoxicity were expressed as EDs0 g/ml, i.e. the concentration ofthe compound inhibiting 50% ofcell growth. […] Incorporation of 4C- formate (53.0 mCi/mmol) into pyrimidines was determined by the method of Christopherson et al.[13]. […] DNA polymerase Ot activity was determined in cytoplasmic extracts isolated by Eichler et aL's method. […] Messenger-, ribosomal- and transfer-RNA polymerase enzymes were isolated with different concentrations of ammonium sulfate; individual RNA polymerase activities were determined using 3H -UTP 16,17]. Ribonucleoside reductase activity was measured using 4C -CDP with dithioerythritol. […]

[3] = system: Rauscher leukemic virus, Moloney murine sarcoma virus and avian myeloblastosis reverse transcriptase; details: cited from earlier work
[4] = system: DC-3F/9-OH-E (resistant 9-hydroellipticine subline); design: method as in ref 41; details: cited from earlier work
DNA polymerase α = molecular target: DNA polymerase α; design: method as in ref 40; details: non-competitively ref 40; read-out: inhibition of DNA polymerase α activity; cited from earlier work
HeLa cells = system: HeLa cells; design: method as in ref 38; details: HeLa cells ref 38; cited from earlier work
SV40 replication = system: SV40 replication; design: method as in ref 38; details: in HeLa cells ref 38; cited from earlier work
DNA polymerase = molecular target: DNA polymerase; design: method as in ref 40; details: non-competitively; enzyme name lost ref 40; read-out: inhibition of second DNA polymerase activity; cited from earlier work
DC-3F = system: DC-3F; design: method as in ref 41; details: cited from earlier work
[5] = system: human Tmolt3 acute lymphoblastic T cell leukemia; test: Cytotoxicity, Tmolt3 growth; type: cell-based; details: concentration inhibiting 50% of cell growth
From the text: as §1, with “MO].” for “MO]. Pentosan sulfate and other antineoplastic standards were obtained from Sigma Chemical Co. Tumor lines were obtained from American Type Culture Collection [Rockville, MD].”, “16,17].” for “16,17]. Ribonucleoside reductase activity was measured using 4C -CDP with dithioerythritol.”

[6] = system: lung bronchogenic MB-9812; test: Cytotoxicity, MB-9812 growth; type: cell-based, human
From the text: as §1, with “MO].” for “MO]. Pentosan sulfate and other antineoplastic standards were obtained from Sigma Chemical Co. Tumor lines were obtained from American Type Culture Collection [Rockville, MD].”, “16,17].” for “16,17]. Ribonucleoside reductase activity was measured using 4C -CDP with dithioerythritol.”

[7] = system: murine L1210 lymphoid leukemia; type: cell-based, mouse; details: concentration inhibiting 50% of cell growth
From the text: CYTOTOXlCITY OF POLY(PHENOLIC)SULFONATES AND THEIR SODIUM SALTS IN L1210 LYMPHOID LEUKEMIA CELLS Fei Wang, Amy E. Warren, Cheryl R. Barnes and Iris H. Hall* Division of Medicinal Chemistry and Natural Products University of North Carolina Chapel Hill, N.C. […] Because ofthese properties it was surmised that these poly(phenolic)sulfonated compounds may have antineoplastic activity. METHODS Source of Compounds Test compounds were supplied by GeneLabs, Inc. [Redwood City, CA [Table 1]. Radioisotopes were obtained from New England Nuclear [Dupont, Boston, MA]. Substrates and co-factors were purchased om Sigma Chemical Co., [St Louis, MO]. Pentosan sulfate and other antineoplastic standards were obtained from Sigma Chemical Co. Tumor lines were obtained from American Type Culture Collection [Rockville, MD]. 147 Vol. 5, No. 3, 1998 Cytotoxicity ofSodium Poly(Phenolic)Sulfonates in L1210 Lymphoid Leukemia Cells Table 1 Structures of Poly(phenolic)sulfonate Compounds O2R" n Compound R' R" n MW # G1-2041 H OH 8 1489.46 G1-2029 H OH 6 1117.09 G1-2030 H OH 4 744.73 GI-2021 CH3 ONa 8 1777.5 G1-2057 CH3 ONa 4 888.75 GI-2158 CH3 ONa 6 1333.13 GI-2063 OCH3 ONa 8 2001.65 G1-2042 OAc ONa 8 2017.73 Cytotoxicity Poly(phenolic)sulfonates were tested for cytotoxic activity by homogenizing drug in 0.05% Tween 80/H20 to give a mg/ml stock concentration. These solutions were sterilized by passing them through an acrodisc ([…]). The following cell lines were maintained by literature techniques: murine L1210 lymphoid leukemia, P-388 lymphocytic leukemia, rat UMR 106 osteosarcoma, human Tmolt3 acute lymphoblastic T cell leukemia, HUT-8 lymphoma, HeLa-S suspended cervical carcinoma, HeLa solid cervical carcinoma, KB epidermoid nasopharynx, A431 epidermoid carcinoma, colorectal adenocarcinoma SW480, HCT-8 ileocecal adenocarcinoma, lung bronchogenic MB-9812, A549 lung carcinoma, and glioma HS683. Geran et al.'s protocol was used to assess the cytotoxicity of the compounds and standards in each cell line. Cell numbers were determined by the trypan blue exclusion technique. Solid tumor cytotoxicity was determined by Leibovitz et al. 's method utilizing crystal violeeOH and read at 562 nm (Molecular Devices). Values for cytotoxicity were expressed as EDs0 g/ml, i.e. the concentration ofthe compound inhibiting 50% ofcell growth. A value of less than 4 µg/ml was required for significant activity ofgrowth inhibition. Incorporation Studies Incorporation of labeled precursors into 3H-DNA, 3H -RNA and 3H -protein for 10 L1210 cells was obtained. The concentration response for inhibition of DNA, RNA and protein synthesis of the compounds at 25, 50 and 100 l.tM was determined for 60 min incubations. Incorporation of 14C -glycine (53.0 mCi/mmol) into purines was obtained by the method of Cadman et al.[12]. Incorporation of 4C- formate (53.0 mCi/mmol) into pyrimidines was determined by the method of Christopherson et al.[13]. Enzyme Assays Inhibition of various enzyme activities was performed by first preparing the appropriate L1210 cell homogenates or subcellular fractions, then adding the drug to be tested during the enzyme assay. For the concentration response studies, inhibition of enzyme activity was determined at 25, 50 and 100 l.tM of compounds G1-2021, G1-2029, GI-2041 and G1-2063 after 60 min incubations. DNA polymerase Ot activity was determined in cytoplasmic extracts isolated by Eichler et aL's method. The DNA polymerase assay was described by Sedwick et al.[15] using 3H-TTP. Messenger-, ribosomal- and transfer-RNA polymerase enzymes were isolated with different concentrations of ammonium sulfate; individual RNA polymerase activities were determined using 3H -UTP 16,17]. Ribonucleoside reductase activity was measured using 4C -CDP with dithioerythritol. The deoxyribonucleotides 4C -dCDP were separated from the ribonucleotides by TLC on PEI plates. […]

[8] = system: HeLa-S suspended cervical carcinoma; test: Cytotoxicity, HeLa-S3 growth; type: cell-based, human; details: concentration inhibiting 50% of cell growth
From the text: as §1, with “MO].” for “MO]. Pentosan sulfate and other antineoplastic standards were obtained from Sigma Chemical Co. Tumor lines were obtained from American Type Culture Collection [Rockville, MD].”, “16,17].” for “16,17]. Ribonucleoside reductase activity was measured using 4C -CDP with dithioerythritol.”

## O=S(=O)(O)c1cc2c(O)c(c1)Cc1cc(S(=O)(=O)O)cc(c1O)Cc1cc(S(=O)(=O)O)cc(c1O)Cc1cc(S(=O)(=O)O)cc(c1O)C2 [GI-2030]
[1]
  activity, in words: active
[1]; concentration inhibiting 50% of cell growth
  ED50: less than 2 μg/ml

## COc1c2cc(S(=O)(=O)[O-])cc1Cc1cc(S(=O)(=O)[O-])cc(c1OC)Cc1cc(S(=O)(=O)[O-])cc(c1OC)Cc1cc(S(=O)(=O)[O-])cc(c1OC)Cc1cc(S(=O)(=O)[O-])cc(c1OC)Cc1cc(S(=O)(=O)[O-])cc(c1OC)C2.[Na+].[Na+].[Na+].[Na+].[Na+].[Na+] [GI-2158]
[2]
  ED50: 3.24 mg/L

## Cc1ccc(C(=O)Nc2ccc(S(=O)(=O)O)c3cc(S(=O)(=O)O)cc(S(=O)(=O)O)c23)cc1NC(=O)c1cccc(NC(=O)Nc2cccc(C(=O)Nc3cc(C(=O)Nc4ccc(S(=O)(=O)O)c5cc(S(=O)(=O)O)cc(S(=O)(=O)O)c45)ccc3C)c2)c1 [suramin]
[3]
  concentration inhibiting reverse transcriptase activities: 0.1 µg/mL
[4]
  ED50: 203 µM
DNA polymerase α
  pIC50: 5.10
HeLa cells
  concentration required to cause death: 250 µg/mL
SV40 replication
  concentration required to inhibit SV40 replication: 40 µM
DNA polymerase
  pIC50: 4.44
DC-3F
  ED50: 31 µM

## pentosan sulfate [reference compound]
[5]
  ED50: < 3 mg/L
[6]
  growth suppression, in words: suppressed moderately
[7]
  ED50: < 3 mg/L
[8]
  ED50: < 3 mg/L
